One series has as its system methylphenidate. In words: Methylphenidate antagonism. To be noted: Mus musculus, ip, mice, i.p. The class given is in vivo, male. The method, then:
Methylphenidate antagonism (ED50 mg/kg i.p.)
Perspex observation cages without bottom and lid, consisting of 5 sections each measuring 12×25×30 cm. White corrugated paper. Mice, male, 18-25 g.
3×2 mice are used for each dose level. Two or 24 hours after injection of test substance, methylphenidate, 60 mg/kg, is injected s.c.
After administration of methylphenidate the mice are placed in the observation cages, 2 in each cage, where they remain for exactly 1 hour. The cages are placed on corrugated paper, the corrugations facing upwards. It is examined whether the mice have been biting the corrugated paper or not. […] If one or more of the control pairs have not been biting, the test has to be repeated on a new set of mice.
The result is stated in fractions: 0/3, 1/3, 2/3 and 3/3 where 0, 1, 2 and 3 are the number of pairs which have not been biting on receipt of the dose in question.

A short description of series [1]: Determination of LD50 (acute toxicity, i.p.). The format is in vivo, Mice, male. The method, then: Determination of LD50 (mg/kg i.p.)
Mice, male, weighing from 18-25 g, fasted from 4 p.m. the day before test day.
Four treated groups and one control group, each of 4 mice, are used.
The test substance is suspended in methyl cellulose 0.5% and injected intraperitoneally. The animals are placed in Macrolon cages type II. […] Furthermore the results are recorded according to the punching instructions as fractions: 0/4, 1/4, 2/4, 3/4 and 4/4 where 0, 1, 2, 3 and 4 indicate the number of deaths after the dose in question.

Series [2] is described as follows: Administration to human beings. To be noted: in vivo. The text has this: Lu 14-089 as well as the non-toxic acid addition salts thereof may be administered to animals such as dogs, cats, horses sheeps or the like, including human beings, both orally and parenterally, and may be used for example in the form of tablets capsules, powders, syrups, suppositories, or in the form of the usual sterile solutions for injection.

A further series relates to apomorphine. In words: Apomorphine vomit. The format is in vivo, Adult Beagle dogs. To be noted: Canis lupus familiaris, sc, 4 h; Beagle dogs, s.c., four hours before apomorphine 25 μg/kg i.v.; calculated ED50 approximate; read-out: Apomorph. Vomit (ED50). The protocol: Adult Beagle dogs of either sex, housed individually in kennels or in cages.
2-4 dogs are used per dose level.
The test compound is injected subcutanelusly in the back of the neck four hours before apomorphine, which is given intravenously in a dose of 25 μg/kg (volume 0.1 ml/kg).
The results are given as fractions, i.e. 0/2, 1/2 or 2/2, stating the number of dogs protected against vomiting over to the number of dogs. On account of the small number of animals the calculated ED50 should be considered approximate.

A further series has as its system amphetamine. In words: Amphetamine antagonism. The format is in vivo, Rats, male. To be noted: Rattus norvegicus, ip, 2 h; rats, i.p., amphetamine sulphate 13.6 mg/kg i.v. two hours later; read-out: Amphetamine antag. (ED50). The method, then: Amphetamine antagonism (ED50 mg/kg i.p.)
Perspex observation cages without bottom and lid, consisting of 5 sections each measuring 12×25×30 cm.
The test substance is given i.p. in a reasonable dose based on the determined LD50. Two hours later an intravenous injection of amphetamine sulphate 13.6 mg/kg (~10 mg/kg amphetamine base) is given, after which the rats are placed individually in the cages. The cages are placed on white corrugated paper. Five rats are used for each dose level. Observations are made after 55 minutes and 65 minutes--observation time: 1 minute. The animals are observed for stereotypy (movements of the head, compulsive gnawing). […] If the compound has full antagonistic effect another group of rats is used at a lower dose. […] The result is stated as fractions: 0/5, 1/5, 2/5, 3/5, 4/5 and 5/5, where 0, 1, 2, 3, 4 and 5 indicate the number of rats which have not shown stereotypy at the dose in question. The results are calculated as ED50 in mg/kg.

Series [3] in a line: Neuroleptic and pharmacological profile evaluated by standard test methods (overall statements). The class given is in vivo. The text has this:
The pharmacological testing of 2-methylthio-6-fluoro-9-(1-methyl-4-piperidylidene)-thioxanthene, in the following called Lu 14-089 for short, and its non-toxic acid addition salts consisted of standard and reliable tests.

Series [4] in a line: Catalepsy wire mesh, rat, max. The format is in vivo, male. To be noted: rats. The method, then:
Catalepsy wire mesh, rat, max. (ED50 mg/kg s.c.)
A vertical wire netting (50 cm×49 cm). The meshes (openings) of the netting are square (1 cm×1 cm). The wire diameter is 2 mm.
The animals are labeled and used in groups of five. The test substance is injected subcutaneously (s.c.) (5 ml/kg) at 4 dose levels selected from the fixed dose scale.
The animals are placed in the middle of the vertical wire netting 60, 120, 180, 240, 300 and 360 minutes after injection of the test compound. The animals are considered cetaleptic when they remain immobile during a period of 15 seconds. This cataleptic reaction is designated +. If the rats are "atonic" and passively slides down the wire mesh they are considered not cataleptic. If the animals climb up and down the wire mesh they are nor cataleptic. In both situations the designation - is used.

The next series deals with Muscarinic. Description: Muscarinic affinity binding (3H-PrBCM, whole brain P2 fraction). More on the design: species or system Rats. To be noted: displacement of specific 3H-PrBCM binding by 50%; rat brain, pH 7.4, 30° C.; read-out: Muscarine affinity (IC50). The protocol:
Muscarinic affinity binding
Sodium thiosulphate 10 mM (2.48 g/1000 ml) ^3 H-PrBCM (N-2'-chloroethyl-N-[2", 3"-^3 H2 ] propyl-2-aminoethylbenzilate,spec. act. ~28 Ci/mM).
A rat is killed by a blow on the head and exsanguinated. The whole brain is removed and homogenized in 10 volumes of ice cold 0.32 M sucrose with a hand homogenizer. The homogenate is centrifuged at 600 g for 10 minutes (4° C.) and the pellet discarded. The supernatant is then centrifuged at 25000 g for 55 minutes (4° C.). The pellet fraction (P2) is resuspended in the same volume of 0.32 M sucrose as previously used and stored on ice.
The aziridinium ion of ^3 H-propylbenzilyllcholine mustard (^3 H-PrBCM) is prepared by cyclization at a concentration of 130 nM in 15 mM Na-phosphate buffer (pH 7.4) for 50 minutes at 20° C. The reaction is terminated by addition of 100 volumes of ice cold buffer.
The incubation is continued for 15 minutes and stopped by addition of 20 ml 100 mM phosphate buffer containing 10 mM sodium thiosulphate. The samples are filtered through Whatman GF/C glass fiber filters and washed with 30 ml ice cold 100 mM phosphate buffer. The filters with synaptosomes are transferred to scintillation vials and the radio-activity measured by liquid scintillation counting after addition of 10 ml Instal-Gel (Packard Inst.). All experiments are performed in triplicate.
Specific ^3 H-PrBCM binding is defined as the total binding minus the binding in the presence of 20 μM atropine.

In a further series the test system is physostigmine. In words: Physostigmine antagonism. To be noted: Mus musculus, ip, 0.5 h; mice, i.p., physostigmine 2 mg/kg i.p. thirty minutes after test substance; survivors after 60 minutes; read-out: Physostigmine antag. (ED50). The format is in vivo, male. The protocol: Physostigmine antagonism (ED50 mg/kg i.p.)
Scopolamine bromide 0.04 mg/ml or 0.1 mg/ml.
Physostigmine salicylate 0.2 mg/ml.
Five mice are used for each dose level. One group, serving as positive control, is injected with scopolamine 0.4 mg/kg i.p. Thirty minutes after i.p. administration of test substance (or scopolamine), physostigmine 2 mg/kg, is injected i.p. This dose of physostigmine induces tremor with salivation, clonic convulsions, coma and death. After 60 minutes the number of survivors are counted.
The results are recorded in fractions: 0/5, 1/5, 2/5, 3/5, 4/5 and 5/5 where 0, 1, 2, 3, 4 and 5 inducate the number of animals in which the test compound has prevented the occurrence of death.

pIC50: −log10 of the molar value. Like-named read-outs stand apart in the source and are kept apart here.

On to `CSc1ccc2c(c1)C(=C1CCN(C)CC1)c1ccc(F)cc1S2` [Lu 14-089, 2-methylthio-6-fluoro-9-(1-methyl-4-piperidylidene)-thioxanthene], for which the median effective dose (ED50) in the series with methylphenidate (methylphenidate 60 mg/kg s.c. 2 h after test substance, read-out: Methylphenidate antag. 2h (ED50)) was 0.1 mg/kg; in the series with methylphenidate (methylphenidate 60 mg/kg s.c. 24 h after test substance, read-out: Methylphenidate antag. 24h (ED50)) it was 14 mg/kg; in the series with apomorphine it was 0.014 mg/kg; in the series with amphetamine it was 0.74 mg/kg; in [4] (rat, in vivo, sc, wire mesh, maximum effect within first 6 hours), 6.3 mg/kg; in the series on physostigmine, 7.2 mg/kg. Also, in [1] (compared with Lu 14-089 or related thioxanthene derivatives), the “acute toxicity, in words” value is reported as “low acute toxicity compared with related thioxanthene derivatives”. In [1] (mouse, in vivo, ip, mice, i.p., deaths after 24 hours), this molecule showed an LD50 at 24 h above 320 mg/kg. Further, in [2], the “Results upon administration to human beings” value is “very gratifying”. In series [3] (compound and its non-toxic acid addition salts), the “neuroleptic effects, in words” value was “strong and relatively longlasting neuroleptic effects”. Further, the “anticholinergic effects, in words” value in [3] (in vivo) is reported as “strong anticholinergic effects”. For the same molecule, the “extrapyramidal side effects, in words” value in [3] (pharmacological profile, standard test methods) is “low extrapyrimidal side effects”. The “Ratio Catalep./Amphetam. antag.” value in series [4] (catalepsy ED50 (s.c.) / amphetamine antagonism ED50 (i.p.)) is listed as 8.5. Moreover, on Muscarinic, the pIC50 was 7.85.
